Assay results from patent US20190054041A1, “USE OF NOOTKATONE” (INSTITUTE OF TROPICAL BIOSCIENCE AND BIOTECHOLOGY CHINESE …, priority 2016, published 2019).

Columns and labels:
ICR mice [1] = assay: Forced swimming test of mice; conditions: once a day for 14 days, 1.5 h after last administration, last 4 min of 6 min, blank control 148.1 ± 18.9, **P < 0.01
ICR mice [2] = assay: 5-HTP induced head twitching mouse model; conditions: once a day for 14 days, 150 mg/Kg 5-HTP i.p. 0.5 h after last administration, counted in 20 min, blank control 34.1 ± 18.1, **P < 0.01
ICR mice [3] = conditions: intragastric once a day for 14 days, nootkatone 1-2 mg/Kg, Prozac 20 mg/Kg
ICR mice [4] = assay: Tail suspension test of mice; conditions: once a day for 14 days, 1.5 h after last administration, last 4 min of 6 min, blank control 151.1 ± 20.1, **P < 0.01
patients with depression = assay: Clinical efficacy observation by reduction rate of HAM-D; type: in vivo, human; conditions: 40 patients, oral 1.5 mg nootkatone monomer/Kg/time, twice a day, 6 weeks
Text: Forty patients were selected, wherein 20 were male and 20 were female, and their disease durations were from 1 month to 2 years. Diagnosis criteria of depression that conformed to Chinese Classification and Diagnostic Criteria of Mental Disorders scored […] according to the first 17 items in the Hamilton Depression Rating Scale (HAM-D) shown in Table 4. First-onset patients, or patients that had not taken antidepressants and antipsychotics and had not been subjected to electric shock therapy over the past week, and patients with depressive episodes of unipolar affective disorder, aged 20-50 years. Patients having depressive disorder caused by bipolar affective disorder and other causes, severe suicidal tendency, and severe abnormalities in laboratory tests (pregnant or lactating women) were eliminated.
Comment: 0 to 4 in the items of Standard for Evaluation and Point referred to the scores, and the standard for evaluation is: the total score <7 means normality; the total score between 7 and 17 means possible depression; the total score between 17 and 24 means definite depression; and the total score >24 means severe depression.
Nootkatone preparation was used to treat the 40 patients, and the administration manner was: orally taking, 1.5 mg nootkatone monomer/Kg/time, twice a day, and 6 weeks were one course of treatment. […] After 1 course of treatment, reduction rate of HAM-D was used to measure the curative efficacy of the traditional Chinese medicine on patients, reduction rate of HAM-D=(total scores before the treatment−total scores after the treatment)/total scores before the treatment×100%.
The standard of curative efficacy evaluation is hereinafter:
cure: reduction rate of HAMD is >75%;
improved: reduction rate of HAMD is from 25% to […];
invalid: reduction rate of HAMD is <25%.

[5] = 1 mg/Kg (small dose) intragastric
[6] = 1.5 mg/Kg (medium dose) intragastric
[7] = 2 mg/Kg (large dose) intragastric

SMILES | Immobility Time, forced swimming test (ICR mice [1]; 20 mg/Kg intragastric) | Head-Twitching Number (ICR mice [2]; 20 mg/Kg intragastric) | Weight of mice before administration, one week and 2 weeks after administration (ICR mice [3]) | Immobility Time, tail suspension test (ICR mice [4]; 20 mg/Kg intragastric) | Immobility Time, forced swimming test (ICR mice [1]; [5]) | Immobility Time, forced swimming test (ICR mice [1]; [6]) | Immobility Time, forced swimming test (ICR mice [1]; [7]) | Head-Twitching Number (ICR mice [2]; [5]) | Head-Twitching Number (ICR mice [2]; [6]) | Head-Twitching Number (ICR mice [2]; [7]) | Toxicity judged from weight and fur appearance of mice (ICR mice [3]) | Immobility Time, tail suspension test (ICR mice [4]; [5]) | Immobility Time, tail suspension test (ICR mice [4]; [6]) | Immobility Time, tail suspension test (ICR mice [4]; [7]) | Adverse reactions in patients (patients with depression) | Curative effective rate (patients with depression) [%] | Share of patients invalid (reduction rate of HAMD <25%) (patients with depression; 2 cases) [%] | Share of patients improved (reduction rate of HAMD from 25% to 50%) (patients with depression; 10 cases) [%] | Share of patients cured (reduction rate of HAMD >75%) (patients with depression; 14 cases) [%] | Share of patients significantly improved (reduction rate of HAMD from 51% to 75%) (patients with depression; 14 cases) [%]
CNCCC(Oc1ccc(C(F)(F)F)cc1)c1ccccc1 (centres unmarked) [Prozac, fluoxetine, reference compound] | 80.9 ± 20.4** s | 57.9 ± 10.4** Time | no significant difference | 87.9 ± 22.0** S | – | – | – | – | – | – | – | – | – | – | – | – | – | – | – | –
C=C(C)[C@@H]1CCC2=CC(=O)C[C@@H](C)[C@]2(C)C1 [Nootkatone, nootkatone] | – | – | – | – | 74.0 ± 26.9** s | 70.2 ± 22.3** s | 66.1 ± 21.6** s | 58.0 ± 26.2** Time | 60.2 ± 25.1** Time | 63.1 ± 22.5** Time | neither nootkatone nor the positive drug Prozac has toxicity | 84.0 ± 17.6** S | 80.2 ± 21.6** S | 75.1 ± 19.6** S | no case has adverse reactions | 95 | 5 | 25 | 35 | 35
